Reference: patent US20260226034A1 (The Rockefeller University, priority 2023, published 2026)

target: NSP14 (Severe acute respiratory syndrome coronavirus 2, UniProt P0DTD1); experiment: NSP14 MTase inhibition assay at 37° C. (MTase-Glo SAH detection); format: biochemical, SARS-CoV-2; conditions: 0.3 nM NSP14, 2.5 μM SAM, 2.5 μM GpppA RNA, 45 min at 37° C.; read-out: Nsp14 Mtase Inh. IC50
Protocol: NSP14 MTase assay at 37° C. (0.3 nM NSP14 as final enzyme concentration)
The NSP14 MTase assay at 37° C. is carried out in 384-well flat bottom polystyrene microplates (Greiner, 781075). Per well, 10 μl of 1×NSP14 reaction buffer (50 mM Tris-HCl, pH 7.5, 6 mM KCl, 1.25 mM MgCl2, 1 mM DTT, and 0.01% Tween-20) are dispensed in columns 1-23 using a Thermo Multidrop Combi dispenser (Thermo Scientific). 0.1 μl of serially diluted compounds in DMSO are dispensed into columns 1-22 of the assay microplates with a Janus 384 MDT NanoHead (PerkinElmer). In wells of column 23, which serve as negative controls, no compounds are added.
The NSP14 reaction is started by adding 4 μl of a 4× substrate solution containing S-adenosyl methionine (SAM, 10 μM) and GpppA RNA (10 μM) prepared in 1×NSP14 reaction buffer. Any addition of reagents is followed by a 30 second centrifugation at 500×g to ensure that all liquid was collected at the bottom of the well. The final concentrations of NSP14, SAM, and GpppA RNA are 0.3 nM, 2.5 μM, and 2.5 μM, respectively. The final reaction volume is 16 μl. Plates are sealed and incubated for 45 min at 37° C.
For SAH detection, 1 μl 5× MTase-Glo™ Reagent (Promega) is added to each well, plates are mixed for 1-2 minutes and incubated at room temperature for 30 minutes. 5 μl of room-temperature MTase-Glo™ Detection Solution (Promega) is added to each well, plates are mixed for 1-2 minutes and incubated at room temperature for 30 minutes. Luminescence signals of each well are recorded in relative light units (RLUs) using a Biotek Synergy Neo plate reader (BioTek, Winooski, VT). The SAH production is normalized against the positive control (PK, column 24) and negative control (NK, column 23) as follows: normalized % inhibition=100×(RLUsample-RLUaverageNK)/(RLUaveragePK-RLUaverageNK).

Row | SMILES | IC50 [nM]
1 | COCC1(NC(=O)c2cc(S(=O)(=O)c3ccc4[nH]ncc4c3)c(C)n2C)CCN(c2ncc(F)cn2)C1 (single isomer, unassigned) [A.114, 4-((1H-indazol-5-yl)sulfonyl)-N-(1-(5-fluoropyrimidin-2-yl)-3-(methoxymethyl)pyrrolidin-3-yl)-1,5-dimethyl-1H-pyrrole-2-carboxamide] | 0.87
2 | COCC1(NC(=O)c2cc(S(=O)(=O)c3ccc4[nH]ncc4c3)c(C)n2C)CCN(c2ncc(F)cn2)C1 (single isomer, unassigned) [A.115, 4-((1H-indazol-5-yl)sulfonyl)-N-(1-(5-fluoropyrimidin-2-yl)-3-(methoxymethyl)pyrrolidin-3-yl)-1,5-dimethyl-1H-pyrrole-2-carboxamide] | 37
3 | Cc1c(S(=O)(=O)c2ccc3[nH]ncc3c2)cc(C(=O)NC2(CO)CCN(c3ncc(F)cn3)C2)n1C (single isomer, unassigned) [A.116, 4-((1H-indazol-5-yl)sulfonyl)-N-(1-(5-fluoropyrimidin-2-yl)-3-(hydroxymethyl)pyrrolidin-3-yl)-1,5-dimethyl-1H-pyrrole-2-carboxamide] | 44
4 | Cc1c(S(=O)(=O)c2ccc3[nH]ncc3c2)cc(C(=O)NC2(CO)CCN(c3ncc(F)cn3)C2)n1C (single isomer, unassigned) [A.117, 4-((1H-indazol-5-yl)sulfonyl)-N-(1-(5-fluoropyrimidin-2-yl)-3-(hydroxymethyl)pyrrolidin-3-yl)-1,5-dimethyl-1H-pyrrole-2-carboxamide] | 2.8

same assay, conditions: 37° C., 0.3 nM NSP14, 2.5 μM SAM, 2.5 μM GpppA RNA; read-out: Nsp14 Mtase Inh. IC50

Row | SMILES | IC50 [nM]
5 | Cc1c(S(=O)(=O)c2ccc3[nH]ncc3c2)cc(C(=O)NC2CCc3c(F)ccc(F)c32)n1C (racemic) [B.70] | 0.95
6 | Cc1c(S(=O)(=O)c2ccc3[nH]ncc3c2)cc(C(=O)NC2CCc3cc(C(F)(F)F)ccc32)n1C (racemic) [B.71] | 36
7 | Cc1c(S(=O)(=O)c2ccc3[nH]ncc3c2)cc(C(=O)NC2CCc3ccc(C(F)(F)F)cc32)n1C (racemic) [B.72] | 33
8 | Cc1c(S(=O)(=O)c2ccc3[nH]ncc3c2)cc(C(=O)NC2CCc3cc(F)c(F)cc32)n1C (racemic) [B.92] | 27
9 | Cc1c(S(=O)(=O)c2ccc3[nH]ncc3c2)cc(C(=O)NC2CCc3cccc(F)c32)n1C (racemic) [B.110] | 0.38
10 | Cc1cc(S(=O)(=O)c2cc(C(=O)NCc3c(F)ccnc3N3CCC(C)(C(=O)O)C3)n(C)c2C)cc2cnn(C)c12 (racemic) [B.127] | 0.58
11 | CN=S(=O)(NC(=O)c1cc(S(=O)(=O)c2ccc3[nH]ncc3c2)c(C)n1C)c1ccccc1 (racemic) [B.135, 4-(1H-indazol-5-ylsulfonyl)-1,5-dimethyl-N—(N-methyl-S-phenyl-sulfonimidoyl)pyrrole-2-carboxamide] | 19
12 | Cc1c(S(=O)(=O)c2ccc3[nH]ncc3c2)cc(C(=O)NC(C)c2ccnn2C)n1C (racemic) [B.172] | 24
13 | Cc1c(S(=O)(=O)c2ccc3[nH]nc(F)c3c2)cc(C(=O)NC2CCc3c2ccc(=O)n3C)n1C (racemic) [B.178] | 21
14 | Cc1c(S(=O)(=O)c2ccc3[nH]ncc3c2)cc(C(=O)N[C@H](C)c2c(F)cccc2F)n1C (single isomer, unassigned) [B.64] | 4
15 | Cc1c(S(=O)(=O)c2ccc3[nH]ncc3c2)cc(C(=O)N[C@H](C)c2c(F)cccc2F)n1C (single isomer, unassigned) [B.65] | 65
16 | Cc1c(S(=O)(=O)c2cc(F)c3[nH]ncc3c2)cc(C(=O)N[C@@H](C)c2cccc3cnn(C4CC4)c23)n1C (single isomer, unassigned) [B.87] | 0.82
17 | Cc1c(S(=O)(=O)c2cc(F)c3[nH]ncc3c2)cc(C(=O)N[C@@H](C)c2cccc3cnn(C4CC4)c23)n1C (single isomer, unassigned) [B.88] | 22
18 | Cc1c(S(=O)(=O)c2ccc3[nH]ncc3c2)cc(C(=O)N[C@H]2CCc3c(F)ccc(F)c32)n1C (single isomer, unassigned) [B.139] | 1.3
19 | Cc1c(S(=O)(=O)c2ccc3[nH]ncc3c2)cc(C(=O)N[C@H]2CCc3c(F)ccc(F)c32)n1C (single isomer, unassigned) [B.140] | 0.31
